Legend:
Format in all cases: cell-based
[1] = system: human neutrophils; assay: AlF4−-induced neutrophil firm adhesion; settings: 500 ng/ml pretreatment, 2 hrs
Description: Effects of SPRST, Tet, or Fan on AlF4^−-induced changes in neutrophil adhesion. Fura 2-AM or BCECF-AM labeled-neutrophils were pretreated with 5-10 μg/ml of SPRST or other chemicals at 37° C. for 10 min. For G-protein study, sample was pretreated with 500 ng/ml of pertussis toxin (PTX) at 37° C. for 2 hrs before the addition of AlF4^− (10 mM NaF plus 10 μM AlCl3), a direct G-protein activator. AlF4^−-induced neutrophil adhesion were measured as described in Materials and Methods.
Measurement of Neutrophil Firm Adhesion. Adhesion of neutrophils to extracellular matrix was determined in 24-well tissue culture plates (FALCON®, NJ, USA) coated with fibrinogen as our previous study (Shen et al., 1999). Prior to the addition of neutrophils, the plates were incubated with 250 μl per well of human fibrinogen (50 pg/ml in PBS; Chemicon International, Inc., CA) for 2 hrs at 37° C. The wells were washed once with HBSS, blocked with 1% BSA (Sigma, USA) in HBSS for 1 hr at 37° C., and washed twice with HBSS containing 0.1% Tween-20 (Sigma, USA) and once with HBSS. […] Adherent neutrophils were then determined by measuring the fluorescence with a fluorescent plate reader (Cytofluor 2300, Millipore®) with excitation at 485 nm and emission at 530 nm. Data are expressed as fluorescence intensity.

[2] = system: human neutrophils; assay: fMLP- or LTB4-induced intracellular calcium concentration ([Ca2+]i), fura-2; settings: 500 ng/ml pretreatment, 2 hrs
Description: Neutrophils (2×10^6/ml) were preloaded with fura 2-AM (5 μM) at 37° C. for 45 min and washed twice with HBSS (calcium free). […] For G-protein study, sample was pretreated with 500 ng/ml of pertussis toxin (PTX) at 37° C. for 2 hrs. Samples were gentle mixed with a micromagnetic stirrer at 37° C. for 5 min before addition of 1 μM of fMLP. [Ca^2+]i was measured on a spectrofluorometer as described in Materials and Methods. Net increase in [Ca^2+]i was calculated by subtracting control values from respective experimental values (control [Ca^2+]i in resting cell was 108±16 nM).
Neutrophils (2×10^6/ml) were preloaded with fura 2-AM (5 μM) at 37° C. for 45 min and washed twice with HBSS (calcium free). […] For G-protein study, sample was pretreated with 500 ng/ml of pertussis toxin (PTX) at 37° C. for 2 hrs. […] [Ca^2+]i was measured on a spectrofluorometer as described in Materials and Methods. Net increase in [Ca^2+]i was calculated by subtracting control values from respective experimental values (control [Ca^2+]i in resting cell was 108±16 nM). […]
Where: K=224 nM (Fura-2 at 37° C.), Rmin=ratio value in minimal Ca^2+ conditions, Rmax=ratio value at a maximal Ca^2+ concentration, Sf380=380 nm reading in minimal Ca^2+ conditions (corrected for background), Sb380 =380 nm reading in maximal Ca^2+ conditions (corrected for background). […]

[3] = system: human neutrophils; assay: AlF4−-induced (direct G protein activation) [Ca2+]i increment; settings: 500 ng/ml pretreatment, 2 hrs
Description: Effects of SPRST, Tet, or Fan on AlF4^−-induced changes in intracellular calcium concentration ([Ca^2+]i). Fura 2-AM or BCECF-AM labeled-neutrophils were pretreated with 5-10 μg/ml of SPRST or other chemicals at 37° C. for 10 min. For G-protein study, sample was pretreated with 500 ng/ml of pertussis toxin (PTX) at 37° C. for 2 hrs before the addition of AlF4^− (10 mM NaF plus 10 μM AlCl3), a direct G-protein activator. AlF4^−-induced changes in [Ca^2+]i were measured as described in Materials and Methods. […] Values are mean±S.E.M. (n=5). *P<0.05, as compared to samples receiving AlF4^− alone for [Ca^2+]i and neutrophil adhesion, respectively. […]
Where: K=224 nM (Fura-2 at 37° C.), Rmin=ratio value in minimal Ca^2+ conditions, Rmax=ratio value at a maximal Ca^2+ concentration, Sf380=380 nm reading in minimal Ca^2+ conditions (corrected for background), Sb380 =380 nm reading in maximal Ca^2+ conditions (corrected for background). Rmax and Sb380 were obtained at the end of a measurement by permeabilizing the cells with 0.2% digitonin, where Rmin and Sf380 were determined by adding 20 mM EGTA after digitonin lysis.

[4] = system: neutrophils; assay: Cell viability / cytotoxicity by propidium iodide exclusion assay; settings: 10 μg/ml, drug alone, 1 h incubation
Description: FIG. 17. Effects of Fan, Tet or SPRST on cell viability. Cell viability was measured by a propidium iodide exclusion assay. After incubation of cells (2×10^6/ml) with SPRST or test drugs for 1 h, cell suspension was further incubated with propidium iodide (10 μg/ml) and fluorescein diacetate (100 ng/ml) at room temperature for 10 min. Cell suspension was analyzed immediately on a flow cytometer (FACSCalibur™; Becton Dickinson) by recording forward and light scatter, red (>630 nm) and green (520 nm) fluorescence. […] Cell viability (%) was calculated by the CellQuest® software (Becton Dickinson) on a Power Macintosh 7300/200 computer. […]
Estimation of cell viability. Cell viability was determined according to Ormerod's method (Ormerod, M. G., 2000. Further applications to cell biology. In: Ormerod, M. G (Ed.), Flow cytometry, Third edition. Oxford University Press, UK, pp. 249-250) after incubation of, cells (2×10^6/ml) with test drugs for 1 h in 5-ml polystyrene round-bottomed tube (FALCON, Becton Dicson). […] After incubation with test drugs, cells suspension were further incubated with propidium iodide and fluorescein diacetate at room temperature for 10 min and analyzed immediately on a flow cytometer (FACSCalibur™; Becton Dickinson) by recording forward and light scatter, red (>630 nm) and green (520 nm) fluorescence. […]

Molecule	AlF4−-induced neutrophil firm adhesion [1]	inhibition of fMLP- or LTB4-triggered rapid increase in [Ca2+]i [2]	AlF4−-induced [Ca2+]i increment [3]	cytotoxic effect (dead cells) [4] [%]
pertussis toxin [PTX]	significantly inhibited	abolished	significantly inhibited	–
COc1ccc2cc1Oc1ccc(cc1)C[C@H]1c3cc(c(OC)cc3CCN1C)Oc1c(OC)c(OC)cc3c1[C@H](C2)N(C)CC3 [Tet, tetrandrine]	–	–	–	1.24±0.17
COc1ccc2cc1Oc1ccc(cc1)C[C@H]1c3cc(c(OC)cc3CCN1C)Oc1c(O)c(OC)cc3c1[C@H](C2)N(C)CC3 [Fan, fangchinoline]	–	–	–	0.84±0.11

— patent publication US20040105907A1, “Anti-inflammatory effects of the partially purified extract of radix stephaniae tetrandrae” (priority 2002, published 2004)
